In ChEMBL document CHEMBL2346634, “Synthesis and biological activity of 4-substituted benzoxazolone derivatives as a new class of sEH inhibitors with high anti-inflammatory activity in vivo” (Bioorg Med Chem Lett, 2013):

Legend:
[1] = target: T1, Bifunctional epoxide hydrolase 2 (Homo sapiens) (UniProt P34913); experiment: Inhibition of recombinant human sEH expressed in Escherichia coli assessed as inhibition of substrate PHOME hydrolysis to 6-methoxy-2-naphthaldehyde at 10 ug/ml after 5 mins by fluorescence assay
T1 sequence (whole entry): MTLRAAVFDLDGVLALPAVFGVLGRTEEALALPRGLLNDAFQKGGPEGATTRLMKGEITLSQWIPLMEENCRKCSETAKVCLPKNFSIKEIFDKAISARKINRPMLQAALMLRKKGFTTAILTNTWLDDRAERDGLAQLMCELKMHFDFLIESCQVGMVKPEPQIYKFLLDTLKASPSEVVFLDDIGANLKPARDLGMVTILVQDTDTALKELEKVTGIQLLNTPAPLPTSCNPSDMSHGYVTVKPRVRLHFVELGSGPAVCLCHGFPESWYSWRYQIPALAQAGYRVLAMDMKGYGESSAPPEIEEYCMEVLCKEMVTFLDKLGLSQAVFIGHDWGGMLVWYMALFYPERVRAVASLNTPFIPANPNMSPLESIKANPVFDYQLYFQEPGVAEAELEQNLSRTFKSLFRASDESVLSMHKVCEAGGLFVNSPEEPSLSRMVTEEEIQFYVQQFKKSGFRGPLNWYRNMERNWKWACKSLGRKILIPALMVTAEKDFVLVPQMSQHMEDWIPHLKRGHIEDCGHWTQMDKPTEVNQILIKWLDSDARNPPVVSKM

[2] = organism: Mus musculus; experiment: animal or person; settings: Kunming, Ear, po, read-out: INH
Description: Antiinflammatory activity in Kunming mouse assessed as inhibition of xylene-induced ear edema at 150 mg/kg, po administered 45 mins prior to xylene challenge measured 15 mins post challenge

[3] = target: T2, Bifunctional epoxide hydrolase 2 (Homo sapiens, UniProt P34913)
T2 sequence (P34913 whole entry): T1 sequence (whole entry)
Description: Inhibition of recombinant human sEH expressed in Escherichia coli assessed as inhibition of substrate PHOME hydrolysis to 6-methoxy-2-naphthaldehyde after 5 mins by fluorescence assay

inhibition [1]	SMILES	inhibition in vivo at 150 mg/kg [2]	IC50 [3]
36%	O=c1[nH]c2c(OS(=O)(=O)c3ccccc3)cccc2o1		
45.5%	O=c1[nH]c2c(O[C@@H]3O[C@H](CO)[C@@H](O)[C@H](O)[C@H]3O)cccc2o1		
25.3%	O=C(Oc1cccc2oc(=O)[nH]c12)c1cccc(Cl)c1		
28.1%	O=C(Oc1cccc2oc(=O)[nH]c12)c1ccc([N+](=O)[O-])cc1		
27.8%	O=C(Oc1cccc2oc(=O)[nH]c12)c1ccc(Cl)cc1		
30.9%	Cc1cccc(S(=O)(=O)Oc2cccc3oc(=O)[nH]c23)c1		
98.3%	Cc1ccc(C(=O)Oc2cccc3oc(=O)[nH]c23)cc1		1.07 µM
39.9%	Cc1ccc(S(=O)(=O)Oc2cccc3oc(=O)[nH]c23)cc1		
29.2%	O=C(Oc1cccc2oc(=O)[nH]c12)c1ccccc1[N+](=O)[O-]		
26.2%	Cc1ccccc1C(=O)Oc1cccc2oc(=O)[nH]c12		
36.1%	O=c1[nH]c2c(OS(=O)(=O)c3ccccc3[N+](=O)[O-])cccc2o1		
92.9%	O=C(Oc1cccc2oc(=O)[nH]c12)c1cccc([N+](=O)[O-])c1		3 µM
28%	Cc1ccccc1S(=O)(=O)Oc1cccc2oc(=O)[nH]c12		
31.6%	O=c1[nH]c2c(OS(=O)(=O)c3cccc([N+](=O)[O-])c3)cccc2o1		
28%	O=C(Oc1cccc2oc(=O)[nH]c12)c1ccccc1		
30.8%	O=C(Oc1cccc2oc(=O)[nH]c12)c1ccccc1Cl		
61%	O=c1[nH]c2c(O[C@@H]3O[C@H](CO)[C@H](O)[C@H](O)[C@H]3O)cccc2o1		
24.4%	Cc1cccc(C(=O)Oc2cccc3oc(=O)[nH]c23)c1		
15.2%	O=c1[nH]c2c(OS(=O)(=O)c3ccccc3Cl)cccc2o1		
24.5%	O=c1[nH]c2c(OS(=O)(=O)c3cccc(Cl)c3)cccc2o1		
13.6%	O=c1[nH]c2c(OS(=O)(=O)c3ccc(Cl)cc3)cccc2o1		
28.8%	O=c1[nH]c2c(OS(=O)(=O)c3ccc([N+](=O)[O-])cc3)cccc2o1		

SMILES	inhibition [1]	inhibition in vivo at 150 mg/kg [2]	IC50 [3]
CC(NC(=O)OC(C)(C)C)C(=O)Oc1cccc2oc(=O)[nH]c12 (stereo not drawn)	95.7%	40.7%	16.4 µM
CC(C)(C)OC(=O)NC(Cc1c[nH]c2ccccc12)C(=O)Oc1cccc2oc(=O)[nH]c12 (stereo not drawn)	79.6%	61%	
CC(C)(C)OC(=O)NCC(=O)Oc1cccc2oc(=O)[nH]c12	95.5%	54.5%	17.2 µM
CC(C)(C)OC(=O)NC(Cc1ccccc1)C(=O)Oc1cccc2oc(=O)[nH]c12 (stereo not drawn)	90.8%	64%	2.67 µM
CSCCC(NC(=O)OC(C)(C)C)C(=O)Oc1cccc2oc(=O)[nH]c12 (stereo not drawn)	99.6%	24.8%	3.02 µM
CC(C)C(NC(=O)OC(C)(C)C)C(=O)Oc1cccc2oc(=O)[nH]c12 (stereo not drawn)	48%	46.5%	
CC(C)(C)OC(=O)N1CCCC1C(=O)Oc1cccc2oc(=O)[nH]c12 (stereo not drawn)	101%	51.5%	1.72 µM
